Test results as given in paper PMC9926234, “Iterative computational design and crystallographic screening identifies potent inhibitors targeting the Nsp3 macrodomain of SARS-CoV-2” (Proceedings of the National Academy of Sciences of the …, 2023).
Like-named read-outs stand apart in the source and are kept apart here.

Biological target: SARS-CoV-2 NSP3 Mac1 (Severe acute respiratory syndrome coronavirus 2, UniProt P0DTD1)
Format: binding
Design: contains a conserved macrodomain enzyme (Mac1)
Conditions: for Spearman est (compound concentration vs apparent Tm): DSF dose responsiveness, 1 µM nsp3 mac1, adj p given
Method: DSF and associated compound handling was performed as described ([12]), with 5 µM dye “Fluorescent Yellow” (Jacquard iDye Cat #JID1405) used in place of SYPRO Orange. Compounds were tested in triplicate, at seven concentrations in two-fold serial dilutions, at a top concentration of either 1,000 or 100 μM. To minimize experimental noise arising from plate location-based effects on Tma, all concentrations and replicates for each compound were tested within a single region of the microtiter plates, including a DMSO-only control from which ΔTmas were calculated for that compound. […] For each compound, to determine statistical significance of the dose responsive thermal shift, the Spearman’s coefficient was calculated between compound concentration and ΔTma.

[1] = maximal thermal upshift vs DMSO control

SMILES	DSF max dTma [1] [°C]	Spearman est (compound concentration vs apparent Tm)	DSF max dTma (maximal thermal upshift)
CC(c1ccc(Cl)c(Cl)c1)S(=O)(=O)Cc1cn[nH]c1 (stereo not shown) [Z5728]	0		
Cc1cc(CSc2nnc3c(=O)[nH]c4ccccc4n23)no1 [Z1628]	0.68		
CN(Cc1nnc2c(=O)[nH]ccn12)c1cc(Cl)nc(C2CC2)n1 [Z7766]	0.14		
CNc1ccc(C(=O)N2CC(C(=O)O)CC2(C)C)cn1 (stereo not shown) [REAL250001652488]		0.12	0.21 ˚C
O=C(Cc1ccc(-n2cccn2)cc1)OCC1CCCNC1=O (stereo not shown) [ZINC000835985505]		−0.14	
Cc1nc(Cc2noc(Cc3ccc4[nH]ncc4c3)n2)no1 [ZINC000345855262]		−0.06	
O=C1CCCN1CCSc1ncnc2[nH]cnc12 [ZINC000118179920]		0.78	
Cc1ccc(C(=O)N2CC[C@H](Oc3ccccc3)C2)cc1O [ZINC000371562024]		−0.6	
Cc1ccc(-c2noc(C3CC(=O)N(c4cn[nH]c4)C3)n2)cc1 (stereo not shown) [ZINC000189176019]		−0.48	
O=C(Cc1ccc2c(c1)CCO2)OCc1cc2ccccc2[nH]c1=O [ZINC000733430132]		−0.12	
CC1CN(C(=O)CCc2nc(-c3ccncc3)no2)C1c1ccccc1 (stereo not shown) [ZINC000173980856]		0.61	
c1csc(CC2CCN(c3ncnc4[nH]ccc34)C2)n1 (stereo not shown) [ZINC000897286891]		−0.05	
Cc1nc(Cc2noc(Cc3ccc4[nH]ncc4c3)n2)no1 [Z5262]	0.45		
COC(=O)CC1CN(c2ncnc3[nH]ccc23)c2ccccc21 (stereo not shown) [Z4911]	0.79		
CNc1ccc(C(=O)N2CC(C(=O)O)CC23CCOCC3)cn1 (stereo not shown) [REAL300007318908]		0.29	0.04 ˚C
O=C(NC(C(=O)O)c1c[nH]c2ccccc12)c1ncnc2[nH]ccc12 (stereo not shown) [Z4661819162]		−0.51	
CN(Cc1nnc2c(=O)[nH]ccn12)c1cc(Cl)nc(C2CC2)n1 [ZINC000882897766]		−0.19	
O=C(Nc1cccnc1)Nc1ccc2ccccc2n1 [Z4718398614]		−0.43	
CN(Cc1nnc2c(=O)[nH]ccn12)c1nccc(C(F)(F)F)n1 [Z7665]	0.55		
NC(=O)C1CCCN(c2ncnc3[nH]c4cc(F)ccc4c23)C1 (stereo not shown) [LL1_0016]		0.18	0.6 ˚C
Cc1nc(S(=O)(=O)NCc2ccc(-c3ccncc3)cc2)cn1C [Z7041]	0.35		
CC(c1ccc(Cl)c(Cl)c1)S(=O)(=O)Cc1cn[nH]c1 (stereo not shown) [ZINC000905245728]		−0.2	
Cc1cc(C)nc(CSc2nnc3c(=O)[nH]c4ccccc4n23)c1 [ZINC001652467570]		0.44	

SMILES	DSF max dTma [1] [°C]	Spearman est (compound concentration vs apparent Tm)	DSF max dTma (maximal thermal upshift)
Cc1nc2c(C(=O)OCc3ccnc(N(C)C)c3)ccnc2[nH]1 [ZINC000924094620]		0.62	
Cc1cc(-n2cncn2)ccc1C(=O)OCC1OCCc2ccccc21 (stereo not shown) [Z3896]	0.63		
CN1C(=O)[C@H]2CN(C(=O)c3ncnc4[nH]ccc34)C[C@H]2C1=O [ZINC001119059028]		−0.58	0 ˚C
Cc1csc(=Nc2ccccc2)n1Cc1nnc2n1CCNC2=O [ZINC000881775356]		0.59	
COc1ccc(Cl)cc1Cn1cnc2c(N)ncnc21 [ZINC000110510953]		0.55	
N#Cc1cccc(-n2ccc(C(=O)OCc3cccnc3)n2)c1 [ZINC000798346395]		0.61	
CN(Cc1ncc(Cl)n1C)c1ncnc(N)n1 [Z3291]	0.98		
CC(C)c1noc(CCc2nc(-c3ccnc4[nH]ccc34)no2)n1 [Z1347]	0		
Cc1ccccc1CNc1ncnc(-c2ccccc2)n1 [Z1635]	0.85		
Cc1cc(C)nc(CSc2nnc3c(=O)[nH]c4ccccc4n23)c1 [Z7570]	0.36		
O=c1[nH]nc(C2CCCN(c3ncnc4[nH]c(Cl)cc34)C2)o1 (stereo not shown) [ZINC001559178387]		−0.22	
Fc1ccc(F)c(Sc2ncnc3[nH]ccc23)c1 [ZINC000339235289]		0.01	
Cc1nc(Cn2cnc3c(N)nc(N)nc32)cs1 [Z4718398569]		0.06	
CN(Cc1nnc2c(=O)[nH]ccn12)C(=O)COC1CC1 [Z0288]	0.49		
CN(C(=O)CN1CCNC(=O)C1)c1ccc(-c2nccs2)cc1 [Z3700]	0		
Cc1cnc(COC(=O)C(C)(C)c2ccc(O)cc2)o1 [Z0329]	0.06		
CCOC(=O)C(NC(=O)c1c[nH]c2ncncc12)c1c[nH]c2ccccc12 (stereo not shown) [Z4661819167]		0.82	
Clc1cc2c(N3CCCC(c4nnc[nH]4)C3)ncnc2[nH]1 (stereo not shown) [Z7156]	0.86		
Cc1n[nH]c2ncc(CN3CC(C)Oc4c(F)cccc43)cc12 (stereo not shown) [Z8637]	0.16		
Cc1cc(-n2cncn2)ccc1C(=O)OCC1OCCc2ccccc21 (stereo not shown) [ZINC000745413896]		0.55	
COC(=O)C1Cc2c(O)cccc2C1NC(=O)c1ccc(NC(=O)NC2CC2)cc1 (stereo not shown) [8539_0076]		−0.19	0 ˚C
O=C(c1cccc(O)c1)N1CCC(Nc2ccccc2)C1 (stereo not shown) [Z4508]	0.37		
Cc1ccccc1CC(C)c1nc(-c2cc(N)ncn2)no1 (stereo not shown) [ZINC000896334066]		0.77	

SMILES	DSF max dTma [1] [°C]	Spearman est (compound concentration vs apparent Tm)	DSF max dTma (maximal thermal upshift)
Nc1ncnc(SCCc2cccc(Cl)c2Cl)n1 [ZINC001641481086]		0.6	
CN(Cc1nnc2c(=O)[nH]ccn12)C(=O)COC1CC1 [ZINC001364630288]		0.73	
CN(Cc1ncc(Cl)n1C)c1ncnc(N)n1 [ZINC001337833291]		0.82	
O=S1(=O)CCC2(CCCN(c3ncnc4[nH]c5cc(F)ccc5c34)C2)C1 (stereo not shown) [LL1_0010]		0.3	0.68 ˚C
CC1C(=O)CCCN1C(=O)c1ccnc2[nH]cnc12 (stereo not shown) [ZINC000885048835]		0.23	0.16 ˚C
Nc1nc(N)c2ncn(Cc3csc(C4CC4)n3)c2n1 [Z4718398585]		0.75	
O=C(COC(=O)c1ccc2nsnc2c1)c1ccccc1 [ZINC000779122380]		0.81	
CC1CCc2n[nH]cc2C1C(=O)N(C)OCc1ccccc1 (stereo not shown) [ZINC000879258074]		0.45	
c1ccc2c(-c3noc(CCCc4nc(C5CC5)no4)n3)n[nH]c2c1 [Z9652]	0.72		
CC(C(=O)N1CC(C(N)=O)C1)n1cnc2c(N)ncnc21 (stereo not shown) [ZINC001434309614]		0.08	0.26 ˚C
Cc1ccc(C(=O)N2CC[C@H](Oc3ccccc3)C2)cc1O [Z2024]	0.36		
CC1c2ccc(F)cc2CCN1C(=O)c1cccc(O)c1 (stereo not shown) [ZINC000679635167]		−0.95	
c1ccc2c(c1)N(c1ncnc3[nH]ccc13)CC21CC1 [Z9310]	0		
Nc1nc(N)c2ncn(C3CN(C(=O)Cc4cccnc4)C3)c2n1 [ZINC001156036512]		0.06	0.61 ˚C
O=C1CC2(CC2)C(CSc2n[nH]c(-c3ccccn3)n2)O1 (stereo not shown) [FRESH00010267028]		0.52	0.32 ˚C
O=C1CSc2cc(C(=O)OC3c4ccccc4CC3F)ccc2N1 (stereo not shown) [Z8554]	0.13		
COc1ccc(Cl)cc1Cn1cnc2c(N)ncnc21 [Z0953]	0.27		
Nc1cc(-c2noc(CCn3cccn3)n2)ncn1 [Z5086]	1.48		
Cc1ccc(CC(=O)OCc2noc(C3CC3)n2)cc1O [ZINC000772152995]		0.02	
Cc1ccc(NS(=O)(=O)c2ccc(C(F)(F)F)cn2)c(O)n1 [ZINC000359659274]		0.61	0.65 ˚C
CC1CCc2n[nH]cc2C1C(=O)N(C)OCc1ccccc1 (stereo not shown) [Z8074]	0.54		
O=C(c1c(F)ccc(O)c1F)N1CCC(Oc2cccc(F)c2)C1 (stereo not shown) [ZINC000368135547]		−0.88	
